{"source": "patent US20120022033A1", "about": "“Methods for decreasing cardiovascular risk in postmenopausal women” (BIOSANTE PHARMACEUTICALS, INC., priority 2010, published 2012)", "system": "postmenopausal women at high risk for cardiovascular events", "assay": "Randomized, double-blind, placebo-controlled, multi-center Phase 3 study; observed vs expected cardiovascular events", "type": "in vivo", "settings": "postmenopausal women at high risk for cardiovascular disease, compared with untreated group", "excerpt": "The following example calculates the expected number of cardiovascular events in a population of postmenopausal women derived from historical data. The estimate of the expected rate of cardiovascular events has been determined from the event rates noted in the Women's Health Initiative (WHI), a Department of Health and Human Services National Institute of Health-sponsored study of women between 50 and 79 years of age, a similar set of women between that age were enrolled for determining the actual number of cardiovascular events as described in Example 2.\nOverall, the cardiovascular event rate in women in the WHI study who had at least one cardiovascular risk factor was approximately 2-fold greater than in women without any cardiovascular risk factors. […]\nThe study consisted of a screening period of up to 8 weeks and a 60-month treatment period. […] Adverse cardiovascular and breast cancer events (ABC events) were assessed at each subject contact in addition to the usual assessments of safety and concomitant medications. […]\nThere were eight adjudicated cardiovascular events determined from this Phase 3 clinical trial after greater than 4,000 woman-years of therapy.", "data": [{"smiles": "C[C@]12CC[C@H]3[C@@H](CCC4=CC(=O)CC[C@@]43C)[C@@H]1CC[C@@H]2O", "note": "[testosterone, testosterone (17-β-hydroxyandrostenone)]", "values": [{"measurement": "risk of having a cardiovascular event (result in words)", "value": "decreases in the risk of having a cardiovascular event"}]}]}
